Like-named read-outs stand apart in the source and are kept apart here.
Key:
[1] = molecular target: JAK1 (Homo sapiens (Human), UniProt P23458); assay: LanthaScreen JAK biochemical assay (JAK1)
[2] = tested on: IL-4 induced STAT6 phosphorylation in THP-1 human monocytic cells; assay: Cellular JAK potency assay, THP-1
[3] = molecular target: JAK3 (Homo sapiens (Human), UniProt P52333); assay: LanthaScreen JAK biochemical assay (JAK3)
[4] = tested on: IL-13 induced STAT6 phosphorylation in BEAS-2B human lung epithelial cells; assay: AlphaScreen cellular JAK potency assay, BEAS-2B
[5] = molecular target: JAK2 (Homo sapiens (Human), UniProt O60674); assay: LanthaScreen JAK biochemical assay (JAK2)
JAK2, sequence (O60674 whole entry): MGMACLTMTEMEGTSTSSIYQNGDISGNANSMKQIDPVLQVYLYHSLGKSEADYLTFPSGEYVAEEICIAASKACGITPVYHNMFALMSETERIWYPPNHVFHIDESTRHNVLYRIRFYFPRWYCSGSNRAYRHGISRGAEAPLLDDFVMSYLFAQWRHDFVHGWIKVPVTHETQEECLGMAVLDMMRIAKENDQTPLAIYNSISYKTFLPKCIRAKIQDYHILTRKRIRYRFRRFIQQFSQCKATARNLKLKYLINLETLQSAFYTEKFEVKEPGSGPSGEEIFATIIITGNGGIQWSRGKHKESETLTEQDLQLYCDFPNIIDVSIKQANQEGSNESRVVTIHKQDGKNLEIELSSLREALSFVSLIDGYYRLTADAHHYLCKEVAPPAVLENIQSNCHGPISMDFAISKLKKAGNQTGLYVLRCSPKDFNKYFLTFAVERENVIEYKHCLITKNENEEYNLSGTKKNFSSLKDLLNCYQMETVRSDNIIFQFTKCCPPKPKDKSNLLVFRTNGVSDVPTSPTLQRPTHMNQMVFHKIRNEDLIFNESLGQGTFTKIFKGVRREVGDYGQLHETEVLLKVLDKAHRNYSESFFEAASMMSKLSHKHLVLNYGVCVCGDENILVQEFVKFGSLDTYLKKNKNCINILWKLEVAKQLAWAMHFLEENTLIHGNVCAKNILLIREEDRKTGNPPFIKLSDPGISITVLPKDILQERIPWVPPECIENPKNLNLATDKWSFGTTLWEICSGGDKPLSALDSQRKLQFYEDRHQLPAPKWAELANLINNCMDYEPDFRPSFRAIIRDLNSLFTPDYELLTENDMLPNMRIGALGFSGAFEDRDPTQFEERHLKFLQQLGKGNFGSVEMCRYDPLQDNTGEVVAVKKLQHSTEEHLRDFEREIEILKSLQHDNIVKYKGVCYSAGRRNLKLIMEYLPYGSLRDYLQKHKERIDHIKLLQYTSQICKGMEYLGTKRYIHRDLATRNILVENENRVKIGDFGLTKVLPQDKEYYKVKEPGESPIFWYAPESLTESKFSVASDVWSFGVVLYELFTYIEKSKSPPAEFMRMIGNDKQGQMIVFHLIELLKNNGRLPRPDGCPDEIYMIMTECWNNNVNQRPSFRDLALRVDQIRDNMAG

[6] = molecular target: Tyk2 (Homo sapiens (Human), UniProt P29597); assay: LanthaScreen JAK biochemical assay (Tyk2)
Tyk2, sequence (P29597 whole entry): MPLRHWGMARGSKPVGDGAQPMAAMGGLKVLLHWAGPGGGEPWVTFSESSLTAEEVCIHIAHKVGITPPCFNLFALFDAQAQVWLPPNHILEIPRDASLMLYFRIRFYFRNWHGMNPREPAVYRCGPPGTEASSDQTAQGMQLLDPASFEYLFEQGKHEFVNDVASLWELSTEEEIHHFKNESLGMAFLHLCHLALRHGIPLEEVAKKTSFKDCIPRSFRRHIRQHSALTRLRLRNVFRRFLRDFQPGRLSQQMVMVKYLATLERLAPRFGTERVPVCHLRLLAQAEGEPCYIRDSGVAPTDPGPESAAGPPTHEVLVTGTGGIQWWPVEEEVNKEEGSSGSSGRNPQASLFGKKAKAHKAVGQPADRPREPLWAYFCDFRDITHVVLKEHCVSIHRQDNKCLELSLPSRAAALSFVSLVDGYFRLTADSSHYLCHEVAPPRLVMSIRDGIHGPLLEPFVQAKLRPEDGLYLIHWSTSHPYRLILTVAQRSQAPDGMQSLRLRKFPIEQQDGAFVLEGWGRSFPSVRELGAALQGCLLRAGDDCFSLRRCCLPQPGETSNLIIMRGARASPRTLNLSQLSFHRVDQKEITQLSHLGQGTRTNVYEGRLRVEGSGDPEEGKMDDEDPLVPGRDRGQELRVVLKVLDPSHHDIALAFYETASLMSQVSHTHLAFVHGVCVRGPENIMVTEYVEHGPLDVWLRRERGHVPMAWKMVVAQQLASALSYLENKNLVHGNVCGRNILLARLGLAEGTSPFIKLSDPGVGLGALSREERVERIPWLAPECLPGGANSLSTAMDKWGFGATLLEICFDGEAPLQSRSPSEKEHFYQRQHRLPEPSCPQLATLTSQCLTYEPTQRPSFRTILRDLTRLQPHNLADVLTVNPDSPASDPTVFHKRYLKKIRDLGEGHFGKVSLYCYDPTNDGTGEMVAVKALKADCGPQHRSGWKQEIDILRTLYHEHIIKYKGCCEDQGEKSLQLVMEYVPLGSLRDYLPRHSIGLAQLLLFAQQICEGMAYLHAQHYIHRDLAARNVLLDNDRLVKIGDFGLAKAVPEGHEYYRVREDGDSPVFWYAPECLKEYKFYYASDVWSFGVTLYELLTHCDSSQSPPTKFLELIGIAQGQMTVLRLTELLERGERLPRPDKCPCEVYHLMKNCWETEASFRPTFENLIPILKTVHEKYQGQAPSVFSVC

[7] = IL-4 induced STAT6 phosphorylation, THP-1 cells
[8] = Homo sapiens, THP-1, read-out: THP-1 IL4 pIC50 (converted)
[9] = Homo sapiens, BEAS-2B, read-out: BEAS2B pIC50 (converted)
[10] = IL-13 induced STAT6 phosphorylation, BEAS-2B cells
[11] = read-out: JAK 1 (pKi) (converted)
[12] = read-out: JAK 2 (pKi) (converted)
[13] = read-out: Tyk 2 (pKi) (converted)
[14] = THP-1 cells, IL-4 induced STAT6 phosphorylation
[15] = BEAS-2B cells, IL-13 induced STAT6 phosphorylation

JAK1, sequence (P23458 whole entry): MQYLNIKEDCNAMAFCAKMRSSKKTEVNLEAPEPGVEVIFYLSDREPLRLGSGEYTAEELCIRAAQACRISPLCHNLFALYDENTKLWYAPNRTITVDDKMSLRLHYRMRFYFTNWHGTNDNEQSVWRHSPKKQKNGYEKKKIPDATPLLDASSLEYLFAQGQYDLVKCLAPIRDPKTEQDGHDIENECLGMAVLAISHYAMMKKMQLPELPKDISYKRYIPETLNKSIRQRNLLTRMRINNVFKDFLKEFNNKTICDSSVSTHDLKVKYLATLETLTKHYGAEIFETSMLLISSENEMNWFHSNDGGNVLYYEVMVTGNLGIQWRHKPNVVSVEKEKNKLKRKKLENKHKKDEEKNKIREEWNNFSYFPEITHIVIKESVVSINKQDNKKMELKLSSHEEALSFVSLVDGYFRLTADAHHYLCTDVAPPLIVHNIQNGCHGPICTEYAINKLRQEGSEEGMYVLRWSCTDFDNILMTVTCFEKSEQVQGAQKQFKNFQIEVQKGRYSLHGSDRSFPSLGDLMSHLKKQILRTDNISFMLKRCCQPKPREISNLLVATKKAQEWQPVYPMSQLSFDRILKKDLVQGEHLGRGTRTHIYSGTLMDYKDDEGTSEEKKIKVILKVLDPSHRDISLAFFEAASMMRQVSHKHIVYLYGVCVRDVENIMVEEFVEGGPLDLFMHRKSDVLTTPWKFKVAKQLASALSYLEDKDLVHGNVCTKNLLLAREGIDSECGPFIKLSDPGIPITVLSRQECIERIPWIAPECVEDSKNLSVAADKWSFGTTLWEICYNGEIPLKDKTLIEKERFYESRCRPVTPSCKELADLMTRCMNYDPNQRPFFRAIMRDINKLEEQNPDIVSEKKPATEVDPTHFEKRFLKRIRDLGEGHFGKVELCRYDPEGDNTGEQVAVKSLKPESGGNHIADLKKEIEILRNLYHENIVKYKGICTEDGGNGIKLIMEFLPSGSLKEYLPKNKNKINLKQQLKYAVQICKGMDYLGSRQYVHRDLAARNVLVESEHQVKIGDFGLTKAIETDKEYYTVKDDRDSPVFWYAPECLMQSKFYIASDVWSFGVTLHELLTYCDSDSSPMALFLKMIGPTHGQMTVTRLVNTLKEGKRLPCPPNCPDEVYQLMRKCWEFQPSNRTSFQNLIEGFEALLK

Compound	JAK 1 (pKi) [1]	THP-1 IL4 pIC50 [2, 7]	JAK 3 (pKi) [3]	JAK 2 (pKi) [5]	Tyk 2 (pKi) [6]	THP-1 IL4 pIC50 [2, 14]	further results
Cc1cc(Nc2cc3ncccc3c(N[C@@H]3C[C@H]4CC[C@@H](C3)N4CC(=O)N(C)C)n2)n[nH]1 [Example 1-8]	B (B represents a pKi value between 9 and 10 (Ki between 1 nM and 0.1 nM))	C (C represents a pEC50 value<6.7 (EC50>200 nM))	C (C represents a pKi value between 7 and 9 (Ki between 100 nM and 1 nM))				
Cc1cc(Nc2cc3ncccc3c(N[C@@H]3C[C@H]4CC[C@@H](C3)N4CC(F)(F)F)n2)n[nH]1 [Example 1-14]							Ki [1]: 0.1 to 1 nM; IC50 [2, 8]: < 31.6 nM; IC50 [4, 9]: < 31.6 nM; Ki [5]: 0.1 to 1 nM; Ki [6]: 0.1 to 1 nM
CCC(CC#N)N1[C@@H]2CC[C@H]1C[C@H](Nc1nc(Nc3cc(C)[nH]n3)cc3ncccc13)C2 (stereo partly shown) [Example 1-22]	B (B represents a pKi value between 9 and 10 (Ki between 1 nM and 0.1 nM))	B (B represents a pEC50 value between 6.7 and 7.5 (EC50 between 200 nM and 32 nM))		B (B represents a pKi value between 9 and 10 (Ki between 1 nM and 0.1 nM))	B (B represents a pKi value between 9 and 10 (Ki between 1 nM and 0.1 nM))		BEAS2B pIC50 [4, 10]: A (A represents a pEC50 value≥7.5 (EC50≤32 nM))
Cc1cc(Nc2cc3ncccc3c(N[C@@H]3C[C@H]4CCC[C@@H](C3)N4Cc3ccncc3C#N)n2)n[nH]1 [Example 1-56]	B (B represents a pKi value between 9 and 10 (Ki between 1 nM and 0.1 nM))	A (A represents a pEC50 value≥7.5 (EC50≤32 nM))		B (B represents a pKi value between 9 and 10 (Ki between 1 nM and 0.1 nM))	B (B represents a pKi value between 9 and 10 (Ki between 1 nM and 0.1 nM))		BEAS2B pIC50 [4, 10]: A (A represents a pEC50 value≥7.5 (EC50≤32 nM))
Cc1cc(Nc2cc3ncccc3c(N[C@@H]3C[C@H]4CC[C@@H](C3)N4C(=O)CN(C)C)n2)n[nH]1 [Example 2-5]	B (B represents a pKi value between 9 and 10 (Ki between 1 nM and 0.1 nM))	C (C represents a pEC50 value<6.7 (EC50>200 nM))	C (C represents a pKi value between 7 and 9 (Ki between 100 nM and 1 nM))				
Cc1cc(Nc2cc3ncccc3c(N[C@@H]3C[C@H]4CCC[C@@H](C3)N4C(=O)CCCC#N)n2)n[nH]1 [Example 2-27]	B (B represents a pKi value between 9 and 10 (Ki between 1 nM and 0.1 nM))			B (B represents a pKi value between 9 and 10 (Ki between 1 nM and 0.1 nM))	B (B represents a pKi value between 9 and 10 (Ki between 1 nM and 0.1 nM))		BEAS2B pIC50 [4, 10]: B (B represents a pEC50 value between 6.7 and 7.5 (EC50 between 200 nM and 32 nM))
Cc1cc(Nc2cc3ncccc3c(N[C@@H]3C[C@H]4CCC[C@@H](C3)N4C(=O)C(C)CC#N)n2)n[nH]1 (stereo partly shown) [Example 2-29]	B (B represents a pKi value between 9 and 10 (Ki between 1 nM and 0.1 nM))			B (B represents a pKi value between 9 and 10 (Ki between 1 nM and 0.1 nM))	B (B represents a pKi value between 9 and 10 (Ki between 1 nM and 0.1 nM))		BEAS2B pIC50 [4, 10]: B (B represents a pEC50 value between 6.7 and 7.5 (EC50 between 200 nM and 32 nM))
COc1ccc2c(N[C@@H]3C[C@H]4CC[C@@H](C3)N4CC(F)(F)F)nc(Nc3cc(C)[nH]n3)cc2n1 [Example 5-1]							Ki [1, 11]: 0.1 to 1 nM; IC50 [2, 8]: < 31.6 nM; IC50 [4, 9]: < 31.6 nM; Ki [5, 12]: 0.1 to 1 nM; Ki [6, 13]: 0.1 to 1 nM
COc1ccc2c(N[C@@H]3C[C@H]4CC[C@@H](C3)N4CCF)nc(Nc3cc(C)[nH]n3)cc2n1 [Example 5-3]	B (B represents a pKi value between 9 and 10 (Ki between 1 nM and 0.1 nM))	B (B represents a pEC50 value between 6.7 and 7.5 (EC50 between 200 nM and 32 nM))	C (C represents a pKi value between 7 and 9 (Ki between 100 nM and 1 nM))				
COc1ccc2c(N[C@@H]3C[C@H]4CC[C@@H](C3)N4CCC#N)nc(Nc3cc(C)[nH]n3)cc2n1 [Example 5-8]	B (B represents a pKi value between 9 and 10 (Ki between 1 nM and 0.1 nM))	A (A represents a pEC50 value≥7.5 (EC50≤32 nM))		B (B represents a pKi value between 9 and 10 (Ki between 1 nM and 0.1 nM))	B (B represents a pKi value between 9 and 10 (Ki between 1 nM and 0.1 nM))		BEAS2B pIC50 [4, 10]: A (A represents a pEC50 value≥7.5 (EC50≤32 nM))
COc1ccc2c(N[C@@H]3C[C@H]4CC[C@@H](C3)N4S(C)(=O)=O)nc(Nc3cc(C)[nH]n3)cc2n1 [Example 5-9]							Ki [1, 11]: 0.1 to 1 nM; IC50 [2, 8]: < 31.6 nM; IC50 [4, 9]: < 31.6 nM; Ki [5, 12]: 0.1 to 1 nM; Ki [6, 13]: 0.1 to 1 nM
Cc1cc(Nc2cc3nc(CN4CCOCC4)ccc3c(N[C@@H]3C[C@H]4CC[C@@H](C3)N4S(=O)(=O)c3cncc(F)c3)n2)n[nH]1 [Example 5-20]							Ki [1, 11]: 0.1 to 1 nM; IC50 [2, 8]: < 31.6 nM; IC50 [4, 9]: 31.6 to 200 nM; Ki [5, 12]: 0.1 to 1 nM; Ki [6, 13]: 0.1 to 1 nM
Cc1cc(Nc2cc3nc(CN4CCN(C)CC4)ccc3c(N[C@@H]3C[C@H]4CC[C@@H](C3)N4CCC#N)n2)n[nH]1 [Example 5-37]		B (B represents a pEC50 value between 6.7 and 7.5 (EC50 between 200 nM and 32 nM))	B (B represents a pKi value between 9 and 10 (Ki between 1 nM and 0.1 nM))				
Cc1cc(Nc2cc3nc(CN4CCN(C)CC4)ccc3c(N[C@@H]3C[C@H]4CC[C@@H](C3)N4CC(C)C)n2)n[nH]1 [Example 5-38]			C (C represents a pKi value between 7 and 9 (Ki between 100 nM and 1 nM))				
COc1cnc2cc(Nc3cc(C)[nH]n3)nc(N[C@@H]3C[C@H]4CC[C@@H](C3)N4CCF)c2c1 [Example 6-13]	B (B represents a pKi value between 9 and 10 (Ki between 1 nM and 0.1 nM))		C (C represents a pKi value between 7 and 9 (Ki between 100 nM and 1 nM))			B (B represents a pEC50 value between 6.7 and 7.5 (EC50 between 200 nM and 32 nM))	
C=CCOC(=O)N1[C@@H]2CC[C@H]1C[C@H](Nc1nc(Nc3cc(C)[nH]n3)cc3ncc(OC)cc13)C2 [Example 6-19]	B (B represents a pKi value between 9 and 10 (Ki between 1 nM and 0.1 nM))		C (C represents a pKi value between 7 and 9 (Ki between 100 nM and 1 nM))			B (B represents a pEC50 value between 6.7 and 7.5 (EC50 between 200 nM and 32 nM))	
COc1cnc2cc(Nc3cc(C)[nH]n3)nc(N[C@@H]3C[C@H]4CC[C@@H](C3)N4S(=O)(=O)N3CC(C#N)C3)c2c1 [Example 6-20]							Ki [1, 11]: 0.1 to 1 nM; IC50 [4, 9]: 31.6 to 200 nM; Ki [5]: 0.1 to 1 nM; Ki [6, 13]: 0.1 to 1 nM
COc1cnc2cc(Nc3cc(C)[nH]n3)nc(N[C@@H]3C[C@H]4CC[C@@H](C3)N4S(=O)(=O)CCCC#N)c2c1 [Example 6-21]	B (B represents a pKi value between 9 and 10 (Ki between 1 nM and 0.1 nM))			B (B represents a pKi value between 9 and 10 (Ki between 1 nM and 0.1 nM))	B (B represents a pKi value between 9 and 10 (Ki between 1 nM and 0.1 nM))		BEAS2B pIC50 [4, 15]: B (B represents a pEC50 value between 6.7 and 7.5 (EC50 between 200 nM and 32 nM))
COc1cnc2cc(Nc3cc(C)[nH]n3)nc(N[C@@H]3C[C@H]4CCC[C@@H](C3)N4S(C)(=O)=O)c2c1 [Example 6-29]	B (B represents a pKi value between 9 and 10 (Ki between 1 nM and 0.1 nM))			B (B represents a pKi value between 9 and 10 (Ki between 1 nM and 0.1 nM))	B (B represents a pKi value between 9 and 10 (Ki between 1 nM and 0.1 nM))	A (A represents a pEC50 value≥7.5 (EC50≤32 nM))	BEAS2B pIC50 [4, 15]: A (A represents a pEC50 value≥7.5 (EC50≤32 nM))
COc1cnc2cc(Nc3cc(C)[nH]n3)nc(N[C@@H]3C[C@H]4CCC[C@@H](C3)N4CCC#N)c2c1 [Example 6-31]	B (B represents a pKi value between 9 and 10 (Ki between 1 nM and 0.1 nM))			B (B represents a pKi value between 9 and 10 (Ki between 1 nM and 0.1 nM))	B (B represents a pKi value between 9 and 10 (Ki between 1 nM and 0.1 nM))	A (A represents a pEC50 value≥7.5 (EC50≤32 nM))	BEAS2B pIC50 [4, 15]: A (A represents a pEC50 value≥7.5 (EC50≤32 nM))
Cc1cc(Nc2cc3ncc(S(C)(=O)=O)cc3c(N[C@@H]3C[C@H]4CC[C@@H](C3)N4CCC(F)(F)F)n2)n[nH]1 [Example 6-56]	B (B represents a pKi value between 9 and 10 (Ki between 1 nM and 0.1 nM))			A (A represents a pKi value≥10 (Ki≤0.1 nM))	B (B represents a pKi value between 9 and 10 (Ki between 1 nM and 0.1 nM))	B (B represents a pEC50 value between 6.7 and 7.5 (EC50 between 200 nM and 32 nM))	BEAS2B pIC50 [4, 15]: B (B represents a pEC50 value between 6.7 and 7.5 (EC50 between 200 nM and 32 nM))
Cc1cc(Nc2nc(N[C@@H]3C[C@H]4CC[C@@H](C3)N4C(=O)CN(C)C)c3cccnc3c2F)n[nH]1 [Example 8-7]			C (C represents a pKi value between 7 and 9 (Ki between 100 nM and 1 nM))			C (C represents a pEC50 value<6.7 (EC50>200 nM))	
Cc1cnc2c(F)c(Nc3cc(C)[nH]n3)nc(N[C@@H]3C[C@H]4CCC[C@@H](C3)N4S(=O)(=O)N3CC(C#N)C3)c2c1 [Example 8-23]	B (B represents a pKi value between 9 and 10 (Ki between 1 nM and 0.1 nM))			A (A represents a pKi value≥10 (Ki≤0.1 nM))	B (B represents a pKi value between 9 and 10 (Ki between 1 nM and 0.1 nM))	B (B represents a pEC50 value between 6.7 and 7.5 (EC50 between 200 nM and 32 nM))	BEAS2B pIC50 [4, 15]: B (B represents a pEC50 value between 6.7 and 7.5 (EC50 between 200 nM and 32 nM))

— US10072026B2, “Crystalline form of 3-((1R,3s,5S)-3-((7-((5-methyl-1H-pyrazol-3-yl)amino)-1,6-naphthyridin-5-yl)amino)-8-azabicyclo[3.2.1]octan-8-yl)propanenitrile” (priority 2015, dated 2018)
